The text below walks through data of US7563805B2, “Tri-, tetra-substituted-3-aminopyrrolidine derivative” (Daiichi Pharmaceutical Co., Ltd., priority 2005, dated 2009).

The subject of data set [1] is bone marrow cells (polychromatic erythrocytes). In words: mouse bone marrow micronucleus test. In kind it is in vivo, Slc:ddY male mice. As to the method:
The control was 0.1 mol/l NaOH/physiological saline solvent, and the positive control was cyclophosphamide (cyclophoshamide, CP) dissolved and diluted in physiological saline. All samples were sterilized by filtering through Milex GS filter (0.22 μm). Each solution was intravenously administered at a dose of 10 mL/kg in single dose at an administration rate of 0.2 mL/min.
Bone marrow cells were collected from thigh bone at 24 hours after the administration, and smear preparation was prepared. After staining with acridine orange, 1000 polychromatic erythrocytes per animal were observed under fluorescence microscope to count frequency of micrronucleated polychromatic erythrocyte and ratio of the orthochromatic erythrocytes to the polychromatic erythrocyte in 1000 erythrocytes.

Data set [2] is classed as in vivo. Conditions: 30 minutes observation. As for the experimental part:
The test substance was intracisternally administered to male Slc:ddy mice (6 animals per group), and the convulsion and death were monitored for each cage until 30 minutes after the administration. The test substance was dissolved in 5 μl of 1% aqueous solution of lactic acid, and the dose was 5, 15, or 50 μg per animal.

The conditions of data set [3]: rat, in vivo, po, 5 mg/kg.
Experimental: (§1) The Comparative compound was also evaluated by the same procedure.
(§2) The test substance was orally administered to fasted rats (7 week old male Crj:CD IGS rats purchased from Charles River Laboratories Japan, Inc.) at a dose of 5 mg/kg.
(§3) Animals of absorption test group (3 animals per group) were sacrificed by bleeding under etherization at 0.25, 0.5, 1, 2, 4, and 8 hours after the drug administration, and blood, lever, kidney, and lung were collected. The blood was centrifuged (3000 rpm×15 minutes, 4° C.) after coagulation to collect serum. Tissue was homogenized after adding 3 to 5 mL of 0.1 mol/l phosphate buffer (pH 7.0), and the supernatant was collected from the homogenate (3000 rpm×15 minutes, 4° C.).
(§4) Animals of excretion test group (3 animals per group) were placed in a metabolic cage, and the urine of 0 to 4 hours and 4 to 24 hours after the administration was collected in a water-cooled container. Simultaneously with the collection of the urine, the cage was also washed with about 15 mL of 0.1 mol/l phosphate buffer (pH 7.0) to collect the urine attached to the cage. For evaluation of conjugates such as glucuronide, the collected sample was also aliquoted and hydrolyzed with an equal amount of 1 mol/l aqueous solution of sodium hydroxide, and the hydrolysate was neutralized with 0.5 mol/l hydrochloric acid and measured for its concentration. The concentration was measured by LC-MS/MS method.
(§5) Pharmacokinetic parameters of the each drug in rat were calculated by from the time course of the average concentration by using pharmacokinetic analysis software PSAG-CP (AS Medica Inc.) in a manner not dependent on the model animal.
Data set [4] addresses T1, hERG K+ channel (Homo sapiens, UniProt Q12809).
In a further data set the test system is E. coli NIHJ. In words: antibacterial activity (MIC), standard method of Japanese Society of Chemotherapy.
The test system of a further data set is P. vulgaris, 08601. The description is as above.
In the next data set the test system is S. marscecens, 10100. The data set is described as above.
A further data set relates to P. aeruginosa, 32104. The data set is described as above.
The test system of a further data set is P. aeruginosa, 32121. The description is as above.
Another data set concerns S. aureus, 209P. The data set is described as above.
A further data set deals with S. epidermidis, 56500. The data set is described as above.
Another data set deals with E. faecalis, ATCC 19433. Described as above.
Data set [5] deals with S. aureus, 87037 (LVFX-resistant MRSA). The description is as above. The settings on record: S. aureus, 87037 (LVFX-resistant MRSA).
In data set [6] the test system is S. pneumoniae, J24 (penicillin-intermediate resistant bacteria). The data set is described as above.
Data set [7] is described as follows: in vivo. Conditions: male, Crj:CD IGS, rat, po, 5 mg/kg.
Experimental: as §1, §2, §3, §4, §5
The target of data set [8] is T1, hERG K+ channel. Briefly: hERG-K^+ channel blocking effect. Background: The hERG channel carries a current that helps repolarise heart muscle cells.
Details of data set [9]: species or system guinea pigs (Slc:Hertley). Conditions: guinea pig, in vivo; for Average score in GPMT: male, Slc:Hertley. As for the experimental part: Guinea pig maximization test (GPMT) which is a widely accepted model for delayed antigenicity was conducted according to the method of Mugnusson et al. (J. invest. Dermatol., 52, 1969) by using a cutaneous sensitization concentration of 1% and a patch sensitization and induction concentration of 10%. At day 1, the animal was sensitized by cutaneously administering the test substance (the quinolone compounds and the control: vehicle, vaseline) (1% solution in physiological saline+FCA emulsion) at the back of the head of the shaved guinea pigs (7 week old male Slc:Hertley). At day 7, lauryl sodium sulfate (SLC) was applied for stimulus (adjuvant treatment), and on the next day, the test substance coated on a wax paper was patched onto the shaved skin to for sealed sensitization, and after 48 hours (at day 10), the waxed paper was removed. The skin reaction was observed upon the removal. On day 22, the test substance (10%) was patched onto the anterior side of the body for induction, and the induction patching was removed after 24 hours. On the next day (at day 24) and the next day (at day 25), the skin reaction was evaluated according to the description of the document as mentioned above. Erythema and edema were scored, and the case with the total score of 2 or higher was evaluated to be positive with the maximum of the score being 7.

For data set [10] the following is noted: in vivo; cited from earlier work.
For data set [11] the following is noted: female, cynomolgus monkey, in vivo, 5 mg/kg.
Data set [12] is described as follows: in vivo. Conditions: female, cynomolgus monkey, po, 5 mg/kg.
Data set [13] is described as follows: pharmacokinetics in rat (concentration in blood and organs, urine excretion) after oral administration.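 Note: fasted 7-week-old rats, three per group, tissue sampled up to 8 h post-dose and urine collected over 0–24 h, with conjugates measured after alkaline hydrolysis, concentrations by LC-MS/MS.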 The settings on record: fasted rat, oral 5 mg/kg.
Experimental: as §1, §2, §3, §4, §5
A further data set addresses CYP3A4 (Homo sapiens, UniProt P08684). The settings on record: known from the document cited; cited from earlier work.
[14] abbreviates: Proteus vulgaris, 08601, P. vulgaris.
[15] abbreviates: Staphylococcus epidermidis, 56500, S. epidermidis.
Where [16] appears, read: Enterococcus faecalis, ATCC19433, E. faecalis.

Converted amounts (≈) assume the structure as drawn. Where two headings read alike, the source gives them in different places.

T1 sequence (Q12809 whole entry): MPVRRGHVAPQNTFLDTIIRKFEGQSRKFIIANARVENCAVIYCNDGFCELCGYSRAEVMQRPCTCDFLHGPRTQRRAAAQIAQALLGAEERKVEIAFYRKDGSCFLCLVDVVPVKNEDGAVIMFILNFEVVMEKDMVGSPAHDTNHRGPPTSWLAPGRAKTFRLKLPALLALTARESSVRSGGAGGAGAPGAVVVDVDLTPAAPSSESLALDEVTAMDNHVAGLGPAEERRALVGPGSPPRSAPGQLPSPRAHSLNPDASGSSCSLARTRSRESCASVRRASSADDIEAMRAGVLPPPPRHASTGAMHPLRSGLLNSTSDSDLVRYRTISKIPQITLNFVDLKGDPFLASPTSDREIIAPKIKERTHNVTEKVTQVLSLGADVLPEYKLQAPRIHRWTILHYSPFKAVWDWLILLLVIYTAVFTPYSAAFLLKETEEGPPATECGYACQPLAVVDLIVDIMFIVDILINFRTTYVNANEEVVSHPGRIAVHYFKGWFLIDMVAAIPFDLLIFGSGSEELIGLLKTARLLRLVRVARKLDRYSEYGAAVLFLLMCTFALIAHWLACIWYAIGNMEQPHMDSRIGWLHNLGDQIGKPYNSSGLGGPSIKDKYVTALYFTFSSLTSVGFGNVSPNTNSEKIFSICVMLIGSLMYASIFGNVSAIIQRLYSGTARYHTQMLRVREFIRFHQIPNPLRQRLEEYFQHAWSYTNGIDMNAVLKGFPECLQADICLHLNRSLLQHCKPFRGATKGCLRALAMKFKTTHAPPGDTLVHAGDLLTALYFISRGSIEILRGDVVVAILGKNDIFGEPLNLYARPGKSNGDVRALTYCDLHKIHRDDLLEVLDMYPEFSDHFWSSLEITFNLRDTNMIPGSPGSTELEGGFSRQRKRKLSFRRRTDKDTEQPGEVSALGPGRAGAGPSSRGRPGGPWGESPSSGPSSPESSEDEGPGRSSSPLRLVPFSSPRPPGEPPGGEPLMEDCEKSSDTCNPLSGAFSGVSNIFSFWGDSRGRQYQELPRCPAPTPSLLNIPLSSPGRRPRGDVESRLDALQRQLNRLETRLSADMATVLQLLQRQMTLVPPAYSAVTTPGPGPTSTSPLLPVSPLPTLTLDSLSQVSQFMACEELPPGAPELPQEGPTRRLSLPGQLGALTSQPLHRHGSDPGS
Chain of CYP3A4 (P08684 whole entry): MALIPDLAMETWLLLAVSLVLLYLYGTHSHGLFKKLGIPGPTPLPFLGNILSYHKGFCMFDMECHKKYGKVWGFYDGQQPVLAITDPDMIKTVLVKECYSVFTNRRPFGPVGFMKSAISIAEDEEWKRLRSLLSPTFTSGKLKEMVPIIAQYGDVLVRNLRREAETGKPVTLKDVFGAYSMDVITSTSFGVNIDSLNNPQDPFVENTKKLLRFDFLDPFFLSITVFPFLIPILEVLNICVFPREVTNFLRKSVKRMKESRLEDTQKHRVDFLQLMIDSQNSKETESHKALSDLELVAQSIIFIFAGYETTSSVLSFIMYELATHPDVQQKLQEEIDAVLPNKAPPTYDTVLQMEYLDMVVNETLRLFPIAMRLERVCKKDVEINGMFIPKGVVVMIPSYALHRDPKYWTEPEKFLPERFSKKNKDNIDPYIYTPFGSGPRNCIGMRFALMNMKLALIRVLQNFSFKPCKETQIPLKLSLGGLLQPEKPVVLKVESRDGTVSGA

Regarding `COc1c(N2C[C@@H](C)[C@@](C)(N)C2)c(F)cc2c(=O)c(C(=O)O)cn([C@@H]3C[C@@H]3F)c12` (relative stereo) [Example 3, 7-[(3R*,4R*)-3-Amino-3,4-dimethylpyrrolidin-1-yl]-6-fluoro-1-[(1R,2S)-2-fluorocyclopropyl]-8-methoxy-1,4-dihydro-4-oxoguinoline-3-carboxylic acid], in [1] (in vivo), the “micronucleus induction rate versus control, evaluation result” value is recorded as “negative”. Besides, the “convulsant activity (animals affected / 6 animals per group)” value in [2] (5 μg/mouse intracisternal) is listed as 0/6; in data set [2] (15 μg/mouse intracisternal), 2/6; in [2] (50 μg/mouse intracisternal), 6/6. In addition, the “Recovery (%) in urine in relation to the amount administered, 0-24 h” value in data set [3] is recorded as 24.5%. The “Recovery (%) in urine in relation to the amount administered, Recovery (%) including conjugate” value (from here on “Recovery (%) in urine … (%) including conjugate”) in [3] came out at 24.7%. Also, in data set [3], the “Serum AUC0-8 h” value came out at 1850 ng·h/mL. Also, in data set [3], the “Serum Cmax (0.25 h)” value was 1030 ng/mL. In addition, in [3], the “Tissue AUC0-8 h, Kidney” value stood at 17100 ng·h/mL. Besides, the “Tissue AUC0-8 h, Liver” value in data set [3] was determined as 15400 ng·h/mL. Moreover, the “Tissue AUC0-8 h, Lung” value in data set [3] was 7380 ng·h/mL. Moreover, the “Tissue Cmax, Kidney” value in [3] came out at 8.83 µg/g. Also, the “Tissue Cmax, Liver” value in data set [3] amounted to 9.02 µg/g. In addition, in data set [3], the “Tissue Cmax, Lung” value was determined as 3.47 µg/g. Also, the entries for the “hERG-K^+ channel blocking effect, Inhibition (%)” value at hERG K+ channel [4] (30 µM), on hERG K+ channel [4] (100 µM) and at hERG K+ channel [4] (300 µM) were 5.3 ± 4.1%, 12.0 ± 4.0% and 22.3 ± 0.7%, respectively. The MIC (as a rule, the least concentration at which growth counts as inhibited) against E. coli NIHJ (E. coli NIHJ) amounted to 0.012 µg/mL (≈ 0.0295 µM); against P. vulgaris, 08601 (P. vulgaris), 0.05 µg/mL (≈ 0.123 µM); against S. marscecens, 10100, 0.2 µg/mL (≈ 0.491 µM); in the data set with P. aeruginosa, 32104 (P. aeruginosa), 0.39 µg/mL (≈ 0.957 µM); in the data set on P. aeruginosa, 32121 (P. aeruginosa) it was 0.2 µg/mL (≈ 0.491 µM); in the data set on S. aureus, 209P it was 0.025 µg/mL (≈ 0.0614 µM). In addition, the minimum inhibitory concentration (MIC) against S. epidermidis, 56500 (S. epidermidis) stood at 0.1 µg/mL (≈ 0.245 µM); with E. faecalis, ATCC 19433 (E. faecalis), 0.2 µg/mL (≈ 0.491 µM); in data set [5], 0.78 µg/mL (≈ 1.91 µM); in data set [6], 0.1 µg/mL (≈ 0.245 µM).
In the case of `COc1c(N2C[C@H](C)[C@@](C)(N)C2)c(F)cc2c(=O)c(C(=O)O)cn([C@@H]3C[C@@H]3F)c12` (single isomer, unassigned) [Example 2, 7-[(3R*,4S*)-3-Amino-3,4-dimethylpyrrolidin-1-yl]-6-fluoro-1-[(1R,2S)-2-fluorocyclopropyl]-8-methoxy-1,4-dihydro-4-oxoquinoline-3-carboxylic acid], the “micronucleus induction rate versus control, evaluation result” value in data set [1] (single i.v. dose, 24 h, Example 2: 50, 100 mg/kg, Example 3: 100, 150 mg/kg, Example 9: 50, 100, 150 mg/kg) is given as “negative”. Also, in [3] (male, Crj:CD IGS), the “Recovery (%) in urine … (%) including conjugate” value is reported as 26.6%; the “Tissue AUC0-8 h, Kidney” value was found to be 14700 ng·h/mL; the “Tissue AUC0-8 h, Liver” value came out at 17400 ng·h/mL; the “Tissue AUC0-8 h, Lung” value was found to be 8070 ng·h/mL. For the same compound, in data set [3] (male, Crj:CD IGS), the “Tissue Cmax, Kidney” value amounted to 7.78 µg/g; the “Tissue Cmax, Liver” value came to 10.2 µg/g; the “Tissue Cmax, Lung” value came to 2.46 µg/g. Moreover, in the data set “in vivo [7]”, the exposure AUC(0-t) – broadly, exposure summed from dosing to a finite time, without extrapolation to infinity – worked out at 1310 ng·h/mL and the peak concentration (Cmax) (commonly the maximum level reached in the sampled fluid or tissue) worked out at 670 ng/mL. At hERG K+ channel [8], the inhibition (commonly the drop in the measured response relative to a control, in per cent) at 30 µM was 3.8 ± 2.1%; the inhibition at 100 µM amounted to 8.5 ± 1.2%; at 300 µM the inhibition was 18.2 ± 4.2%. The same compound registered an MIC against E. coli NIHJ (Escherichia coli) of 0.012 µg/mL (≈ 0.0295 µM). In the data set with P. vulgaris, 08601 (setting [14]), this compound yielded a minimum inhibitory concentration (MIC) of 0.025 µg/mL (≈ 0.0614 µM). Also, it took 0.1 µg/mL (≈ 0.245 µM) to inhibit growth against S. marscecens, 10100 (MIC). The MIC in the data set on P. aeruginosa, 32104 (Pseudomonas aeruginosa) is 0.2 µg/mL (≈ 0.491 µM). The same compound yielded a minimum inhibitory concentration (MIC) against P. aeruginosa, 32121 (Pseudomonas aeruginosa) of 0.1 µg/mL (≈ 0.245 µM). Moreover, in the data set with S. aureus, 209P (Staphylococcus aureus), the MIC came out at 0.025 µg/mL (≈ 0.0614 µM). This compound returned a minimum inhibitory concentration (MIC) in the data set on S. epidermidis, 56500 (setting [15]) of 0.05 µg/mL (≈ 0.123 µM). In the data set on E. faecalis, ATCC 19433 (setting [16]), this compound showed an MIC of 0.2 µg/mL (≈ 0.491 µM). This compound also returned an MIC in data set [5] (Staphylococcus aureus, MRSA) of 0.78 µg/mL (≈ 1.91 µM). Also, the MIC in [6] (Streptococcus pneumoniae) stood at 0.1 µg/mL (≈ 0.245 µM).
For the compound `CO/N=C1\CN(c2nc3c(cc2F)c(=O)c(C(=O)O)cn3C2CC2)CC1CN` (stereo not shown) [Gemifloxacin, gemifloxacin], in [9], the “Average score in GPMT” value is recorded as 6.8. The “side effect of rash in phase 3 clinical trial” value in [10] is “frequently develops the side effect of rash”.
On to `COc1c(N2C[C@@H]3CCCN[C@@H]3C2)c(F)cc2c(=O)c(C(=O)O)cn(C3CC3)c12` [MFLX, moxifloxacin, reference compound], for which the “Evaluation in GPMT” value in data set [9] is given as “Negative”. In addition, the “Average score in GPMT” value in data set [9] is on record as 0. In addition, the “Recovery (%) in urine … (%) including conjugate” value in [3] (male, Crj:CD IGS) is listed as 30.8%; in data set [11], 12.2%. In addition, the “Serum Cmax (0.25 h)” value in [3] (male, Crj:CD IGS) was found to be 1490 ng/mL. Moreover, the “Serum Cmax” value in [11] (po) stood at 1030 ng/mL. In “in vivo [12]”, the AUC(0-t) was determined as 6640 ng·h/mL. Besides, the inhibition at 30 µM against hERG K+ channel [8] stood at 33.9 ± 8.3%. Further, at 100 µM the inhibition against hERG K+ channel [8] was 44.6 ± 10.2%. At hERG K+ channel [8], the inhibition at 300 µM was 69.9 ± 8.3%. Besides, the MIC with E. coli NIHJ (Escherichia coli) is 0.012 µg/mL (≈ 0.0299 µM); in the data set on P. vulgaris, 08601 (setting [14]), 0.025 µg/mL (≈ 0.0623 µM); in the data set on P. aeruginosa, 32104 (Pseudomonas aeruginosa), 0.39 µg/mL (≈ 0.972 µM); with P. aeruginosa, 32121 (Pseudomonas aeruginosa), 0.2 µg/mL (≈ 0.498 µM); against S. aureus, 209P (Staphylococcus aureus), 0.05 µg/mL (≈ 0.125 µM); with S. epidermidis, 56500 (setting [15]), 0.2 µg/mL (≈ 0.498 µM). Also, the minimal inhibitory concentration (MIC) in the data set with E. faecalis, ATCC 19433 (setting [16]) is 0.2 µg/mL (≈ 0.498 µM); in data set [5] (Staphylococcus aureus, MRSA), 1.56 µg/mL (≈ 3.89 µM); in [6] (Streptococcus pneumoniae) it was 0.1 µg/mL (≈ 0.249 µM). Further, the “Tissue Cmax, Lung” value in data set [13] is 4.69 µg/g.
`CC[C@H]1OC(=O)[C@H](C)[C@@H](O[C@H]2C[C@@](C)(OC)[C@@H](O)[C@H](C)O2)[C@H](C)[C@@H](O[C@@H]2O[C@H](C)C[C@H](N(C)C)[C@H]2O)[C@](C)(OC)C[C@@H](C)C(=O)[C@H](C)[C@@H](O)[C@]1(C)O` [clarithromycin]: the “MBI action for CYP3A4” value on CYP3A4 was “exhibit MBI action for CYP3A4”.
